The numbers were not newly measured in PubChem BioAssay AID1259409 (Chemical Carcinogenesis Research Information System (CCRIS), 2018), which cites them from elsewhere.

In the data set the test system is rodent chemically induced tumor inhibition, incidence and multiplicity. Briefly: CCRIS tumor inhibitor studies. To be noted: Route [Inhibitor]: ORAL.

Molecules are shown by their SMILES.

`CC1=C(/C=C/C(C)=C/C=C/C(C)=C/C(=O)Nc2ccc(O)cc2)C(C)(C)CCC1`: the “tumour outcome (control, treated, inhibition, significance)” value is reported as 10/39 (26%), 5/30 (17%), 35%, not significant (Carcinogen: 1,2-DIMETHYLHYDRAZINE, 540-73-8, Dose [Inhibitor]: 2.0 MMOL/KG DIET DAILY STARTING 12 D AFTER CARCINOGEN TREATMENT THROUGH ABOUT 8 MO AFTER CARCINOGEN DOSE (STUDY DURATION, Species: RAT, Strain/Sex: F344/MALE, Target Tissue: Type of Lesion: COLON: ADENOCARCINOMA, Dose [Carcinogen]: 150 MG/KG BW ONCE, Promoter: NONE USED); 23/39 (59%), 7/30 (23%), 61%, p<0.05 (Carcinogen: 1,2-DIMETHYLHYDRAZINE, 540-73-8, Dose [Inhibitor]: 2.0 MMOL/KG DIET DAILY STARTING 12 D AFTER CARCINOGEN TREATMENT THROUGH ABOUT 8 MO AFTER CARCINOGEN DOSE (STUDY DURATION, Species: RAT, Strain/Sex: F344/MALE, Target Tissue: Type of Lesion: COLON: ADENOMA, Dose [Carcinogen]: 150 MG/KG BW ONCE, Promoter: NONE USED); 100%, 100%, 0%, not significant (Carcinogen: 4-(METHYLNITROSAMINO)-1-(3-PYRIDYL)-1-BUTANONE [64091-50-5], Dose [Inhibitor]: 2 MMOL/KG IN DIET FOR 17 WK BEGINNING 1 WK PRIOR TO FIRST CARCINOGEN DOSE (STUDY DURATION: 17 WK), Species: MOUSE, Strain/Sex: A/J/FEMALE, Target Tissue: Type of Lesion: LUNG: ADENOMA, Dose [Carcinogen]: 10 UMOL ONCE 1 WK POST FIRST INHIBITOR DOSE (STUDY DURATION: 17 WK), Promoter: NONE); 100%, 100%, 0%, not significant (Carcinogen: 4-(METHYLNITROSAMINO)-1-(3-PYRIDYL)-1-BUTANONE [64091-50-5], Dose [Inhibitor]: 2 MMOL/KG IN DIET FOR 53 WK BEGINNING 1 WK PRIOR TO FIRST CARCINOGEN DOSE (STUDY DURATION: 53 WK), Species: MOUSE, Strain/Sex: A/J/FEMALE, Target Tissue: Type of Lesion: LUNG: ADENOMA OR ADENOCARCINOMA, Dose [Carcinogen]: 10 UMOL ONCE 1 WK POST FIRST INHIBITOR DOSE (STUDY DURATION: 53 WK), Promoter: NONE); 100%, 100%, 0%, not significant (Carcinogen: 4-(METHYLNITROSAMINO)-1-(3-PYRIDYL)-1-BUTANONE [64091-50-5], Dose [Inhibitor]: 4 MMOL/KG IN DIET FOR 17 WK BEGINNING 1 WK PRIOR TO FIRST CARCINOGEN DOSE (STUDY DURATION: 17 WK), Species: MOUSE, Strain/Sex: A/J/FEMALE, Target Tissue: Type of Lesion: LUNG: ADENOMA, Dose [Carcinogen]: 10 UMOL ONCE 1 WK POST FIRST INHIBITOR DOSE (STUDY DURATION: 17 WK), Promoter: NONE); 100%, 93%, 7%, not significant (Carcinogen: 4-(METHYLNITROSAMINO)-1-(3-PYRIDYL)-1-BUTANONE [64091-50-5], Dose [Inhibitor]: 4 MMOL/KG IN DIET FOR 53 WK BEGINNING 1 WK PRIOR TO FIRST CARCINOGEN DOSE (STUDY DURATION: 53 WK), Species: MOUSE, Strain/Sex: A/J/FEMALE, Target Tissue: Type of Lesion: LUNG: ADENOMA OR ADENOCARCINOMA, Dose [Carcinogen]: 10 UMOL ONCE 1 WK POST FIRST INHIBITOR DOSE (STUDY DURATION: 53 WK), Promoter: NONE). In addition, the “tumour outcome (control, treated, inhibition, significance)” value (Carcinogen: 7,12-DIMETHYLBENZ[A]ANTHRACENE, 57-97-6, Dose [Inhibitor]: 0, 1 MMOL/KG IN DIET FOR THE DURATION OF STUDY BEGINNING 1 WK PRIOR TO CARCINOGEN DOSE (STUDY DURATION: 105 WK), Species: RAT, Strain/Sex: SPRAGUE-DAWLEY/FEMALE, Target Tissue: Type of Lesion: MAMMARY GLAND: TUMOR, Dose [Carcinogen]: 15 MG IN 1 ML SESAME OIL ONCE, Promoter: NONE USED) was 88%, 73%, 17%, not significant; the “tumour outcome (control, treated, inhibition, significance)” value (Carcinogen: 7,12-DIMETHYLBENZ[A]ANTHRACENE, 57-97-6, Dose [Inhibitor]: 0, 2 MMOL/KG IN DIET FOR THE DURATION OF STUDY BEGINNING 1 WK PRIOR TO CARCINOGEN DOSE (STUDY DURATION: 105 WK), Species: RAT, Strain/Sex: SPRAGUE-DAWLEY/FEMALE, Target Tissue: Type of Lesion: MAMMARY GLAND: TUMOR, Dose [Carcinogen]: 15 MG IN 1 ML SESAME OIL ONCE, Promoter: NONE USED) is 88%, 33%, 63%, not significant; the “tumour outcome (control, treated, inhibition, significance)” value (Carcinogen: 7,12-DIMETHYLBENZ[A]ANTHRACENE, 57-97-6, Dose [Inhibitor]: 0, 2 MMOL/KG OF DIET FOR 15.5 WK BEGINNING 10 D PRIOR TO CARCINOGEN DOSE (STUDY DURATION: 17 WK), Species: RAT, Strain/Sex: SPRAGUE-DAWLEY/FEMALE, Target Tissue: Type of Lesion: MAMMARY GLAND: TUMOR, Dose [Carcinogen]: 15 MG IN 1 ML OF SESAME OIL ONCE AT 50 D OF AGE, Promoter: NONE USED) was 92%, 58%, 37%, not calculated; the “tumour outcome (control, treated, inhibition, significance)” value (Carcinogen: 7,12-DIMETHYLBENZ[A]ANTHRACENE, 57-97-6, Dose [Inhibitor]: 0, 2 MMOL/KG OF DIET FOR 18.5 WK BEGINNING 10 D PRIOR TO CARCINOGEN DOSE (STUDY DURATION: 18.5 WK), Species: RAT, Strain/Sex: SPRAGUE-DAWLEY/FEMALE, Target Tissue: Type of Lesion: MAMMARY GLAND: TUMOR, Dose [Carcinogen]: 15 MG IN 1 ML OF SESAME OIL ONCE AT 50 D OF AGE, Promoter: NONE USED) was 83%, 33%, 60%, not calculated; the “tumour outcome (control, treated, inhibition, significance)” value (Carcinogen: 7,12-DIMETHYLBENZ[A]ANTHRACENE, 57-97-6, Dose [Inhibitor]: 0, 2 MMOL/KG OF DIET FOR 20 D BEGINNING 10 D PRIOR TO CARCINOGEN DOSE (STUDY DURATION: 18.5 WK), Species: RAT, Strain/Sex: SPRAGUE-DAWLEY/FEMALE, Target Tissue: Type of Lesion: MAMMARY GLAND: TUMOR, Dose [Carcinogen]: 15 MG IN 1 ML OF SESAME OIL ONCE AT 50 D OF AGE, Promoter: NONE USED) is reported as 100%, 67%, 33%, not calculated; the “tumour outcome (control, treated, inhibition, significance)” value (Carcinogen: 7,12-DIMETHYLBENZ[A]ANTHRACENE, 57-97-6, Dose [Inhibitor]: 0.75 MMOL/KG OF DIET IN 25 ML OF THE VEHICLE (ETHANOL/TRICAPRYLIN 1:4 (VOL/VOL) PLUS 6% (WT/VOL) ALPHA-TOCOPHEROL) BEGIN, Species: RAT, Strain/Sex: SPRAGUE-DAWLEY/FEMALE, Target Tissue: Type of Lesion: MAMMARY GLAND: TUMOR, Dose [Carcinogen]: 75 MG/KG BW IN 1.0 ML SESAME OIL ONCE, Promoter: NONE USED) was 70%, 65%, 7%, not significant.
